According to patent US10669284B2, “Fused thiazolopyrimidine derivatives as MNKS inhibitors” (LIFEARC, priority 2015, dated 2020):

Tests used:
keratinocytes = details: cited from earlier work
[1] = test system: monocytic cell line THP-1; details: cited from earlier work
HCT116 xenograft = HCT116 xenograft models; cited from earlier work
[2] = test system: eIF4E phosphorylation in normal mouse tissues and xenografted tumors; details: after oral administration; cited from earlier work
[3] = test system: B16 melanoma lung metastases; details: cited from earlier work
[4] = test system: phosphorylation of eIF4E at ser209 in MV4.11 cell line; experiment: MNK cellular activity phospho-eIF4E detection assay (Alphascreen Surefire); assay type: cell-based; details: Homo sapiens; MV4.11 cell line, phospho-eIF4E (ser209) Alphascreen Surefire; read-out: P(IC50) elF4E (converted)
Outline: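 AlphaScreen SureFire sandwich-immunoassay readout of phospho-eIF4E Ser209 in lysed MV4.11 cells; acceptor then donor beads, each 1.5 hr at room temperature. Signal normalised to untreated DMSO-only controls; duplicate curves, values averaged over at least 2 independent experiments.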

Full-length human MNK1 = biological target: T1, Full-length human MNK1 (Homo sapiens, UniProt Q9BUB5, T385D); experiment: MNK1 biochemical IC50 assay (Caliper Mobility Shift Assay); details: read-out: P(IC50) MNK1 (converted)
T1 construct: GST (N); purchased Carna Biosciences 02-145; host or cells: baculovirus expression system

Full-length human MNK2 = biological target: T2, Full-length human MNK2 (Homo sapiens, UniProt Q9HBH9, T379D); experiment: MNK2 biochemical IC50 assay (Caliper Mobility Shift Assay); details: read-out: P(IC50) MNK2 (converted)
T2 construct: GST (N); purchased Carna Biosciences 02-146; host or cells: baculovirus expression system
T2 sequence (Q9HBH9 whole entry T379D): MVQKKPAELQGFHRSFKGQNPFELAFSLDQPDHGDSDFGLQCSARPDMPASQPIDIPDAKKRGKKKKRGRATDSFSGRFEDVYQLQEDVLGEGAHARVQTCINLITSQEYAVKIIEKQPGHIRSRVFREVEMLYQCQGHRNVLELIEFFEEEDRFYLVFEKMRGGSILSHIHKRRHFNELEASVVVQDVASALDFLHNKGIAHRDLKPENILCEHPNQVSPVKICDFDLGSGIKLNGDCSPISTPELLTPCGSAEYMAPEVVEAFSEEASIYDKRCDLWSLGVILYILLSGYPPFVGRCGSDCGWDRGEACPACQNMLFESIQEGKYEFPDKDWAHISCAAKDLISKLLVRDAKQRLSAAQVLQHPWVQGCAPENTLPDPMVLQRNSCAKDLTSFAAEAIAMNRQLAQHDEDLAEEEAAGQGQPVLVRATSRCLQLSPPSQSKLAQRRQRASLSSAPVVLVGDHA

T1 sequence (Q9BUB5 1-424 isoform Q9BUB5-2 T344D): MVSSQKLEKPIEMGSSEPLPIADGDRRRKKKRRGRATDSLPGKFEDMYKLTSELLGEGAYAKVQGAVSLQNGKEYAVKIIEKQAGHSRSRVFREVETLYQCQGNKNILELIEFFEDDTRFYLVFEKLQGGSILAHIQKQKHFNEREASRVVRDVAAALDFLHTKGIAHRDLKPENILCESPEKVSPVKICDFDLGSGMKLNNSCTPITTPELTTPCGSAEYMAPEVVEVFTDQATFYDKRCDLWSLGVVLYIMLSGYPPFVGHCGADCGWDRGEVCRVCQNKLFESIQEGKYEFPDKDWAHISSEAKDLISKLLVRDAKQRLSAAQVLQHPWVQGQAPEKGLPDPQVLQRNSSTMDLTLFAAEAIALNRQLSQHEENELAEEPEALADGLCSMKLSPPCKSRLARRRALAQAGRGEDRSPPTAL

In the case of `Nc1ncnc2n[nH]c(Nc3ccc(F)cc3)c12` [CGP57380], the TNF-production (keratinocytes) is given as “reduced TNF-production”, the “expression of IL-1β and IL-6” value (keratinocytes) is given as “decreased expression” and the “block of release of IL-1β and IL-8 induced by Shiga toxin” value [1] is given as 73-96%.

In the case of `CC(=O)C1=C(O)C=C2Oc3c(C(N)=O)c(O)cc(O)c3[C@]2(C)C1=O` [cercosporamide], the tumor growth (HCT116 xenograft) is given as “reducing tumor growth”, the “time to effective block of eIF4E phosphorylation” value [2] is given as no more than 30 min and the “outgrowth of lung metastases” value [3] is given as “suppressing the outgrowth”.

With `CN1CCN(c2nc3c(N4CCc5cc(F)ccc54)ncnc3s2)CC1` [Example 88, 7-(5-fluoroindolin-1-yl)-2-(4-methylpiperazin-1-yl)thiazolo[5,4-d]pyrimidine] the IC50 [4] was 251 nM, the IC50 (Full-length human MNK1) was 79.4 nM and the IC50 (Full-length human MNK2) was 50.1 nM.

`O=C(NC1CCOCC1)c1nc2c(N3CCc4cc(F)ccc43)ncnc2s1` [Example 66, 7-(5-fluoroindolin-1-yl)-N-tetrahydropyran-4-yl-thiazolo[5,4-d]pyrimidine-2-carboxamide] showed an IC50 [4] of 10 nM, an IC50 (Full-length human MNK1) of 5.01 nM and an IC50 (Full-length human MNK2) of 3.98 nM.

`CC(C)Oc1cc(F)ccc1Nc1ncnc2sc(C(=O)NC3CCOCC3)nc12` [Example 33, 7-{[4-fluoro-2-(propan-2-yloxy)phenyl]amino}-N-(tetrahydro-2H-pyran-4-yl)[1,3]thiazolo[5,4-d]pyrimidine-2-carboxamide] gave an IC50 [4] of 79.4 nM, an IC50 (Full-length human MNK1) of 100 nM and an IC50 (Full-length human MNK2) of 79.4 nM.

With `O=C(NC1CCOCC1)c1nc2c(N3CC(CCN4CCCC4)c4ccccc43)ncnc2s1` (stereo not drawn) [Example 153, 7-[3-(2-pyrrolidin-1-ylethyl)indolin-1-yl]-N-tetrahydropyran-4-yl-thiazolo[5,4-d]pyrimidine-2-carboxamide] the IC50 [4] was 100 nM, the IC50 (Full-length human MNK1) was 50.1 nM and the IC50 (Full-length human MNK2) was 50.1 nM.

For `CC(C)Oc1cc(F)ccc1Nc1ncnc2sc(C(=O)NCC(O)CO)nc12` (stereo not drawn) [Example 12, N-(2,3-dihydroxypropyl)-7-(4-fluoro-2-isopropoxy-anilino)thiazolo[5,4-d]pyrimidine-2-carboxamide], the IC50 [4] was 50.1 nM, the IC50 (Full-length human MNK1) was 126 nM and the IC50 (Full-length human MNK2) was 63.1 nM.

With `O=C(NCC1CCNCC1)c1nc2c(N3CCc4cc(Br)ccc43)ncnc2s1` [Example 169, 7-(5-Bromoindolin-1-yl)-N-(4-piperidylmethyl)thiazolo[5,4-d]pyrimidine-2-carboxamide] the IC50 [4] was 31.6 nM, the IC50 (Full-length human MNK1) was 7.94 nM and the IC50 (Full-length human MNK2) was 7.94 nM.

For `O=C(NCC1CCNCC1)c1nc2c(N3CCc4ccccc43)ncnc2s1` [Example 94, 7-Indolin-1-yl-N-(4-piperidylmethyl)thiazolo[5,4-d]pyrimidine-2-carboxamide], the IC50 [4] was 7.94 nM, the IC50 (Full-length human MNK1) was 6.31 nM and the IC50 (Full-length human MNK2) was 3.98 nM.

`O=C(NC1CCOCC1)c1nc2c(N3CC(CCN4CCCC4)c4cc(F)ccc43)ncnc2s1` (stereo not drawn) [Example 149, 7-[5-fluoro-3-(2-pyrrolidin-1-ylethyl)indolin-1-yl]-N-tetrahydropyran-4-yl-thiazolo[5,4-d]pyrimidine-2-carboxamide] gave an IC50 [4] of 63.1 nM, an IC50 (Full-length human MNK1) of 31.6 nM and an IC50 (Full-length human MNK2) of 50.1 nM.

Compound `Fc1ccc2c(c1)CCN2c1ncnc2sc(N3CCOCC3)nc12` [Example 87, 4-[7-(5-fluoroindolin-1-yl)thiazolo[5,4-d]pyrimidin-2-yl]morpholine] has an IC50 [4] of 200 nM, an IC50 (Full-length human MNK1) of 126 nM and an IC50 (Full-length human MNK2) of 79.4 nM.

For `CC1(C)CN(C(=O)c2nc3c(N4CCc5ccccc54)ncnc3s2)CCO1` [Example 102, (2,2-dimethylmorpholin-4-yl)-(7-indolin-1-ylthiazolo[5,4-d]pyrimidin-2-yl)methanone], the IC50 [4] was 631 nM, the IC50 (Full-length human MNK1) was 158 nM and the IC50 (Full-length human MNK2) was 200 nM.
